Experimental data from patent US11723957B2, “Compositions comprising relaxin and methods of use thereof” (Beth Israel Deaconess Medical Center, Inc., priority 2016, dated 2023).
Values joined by “and” are separate entries in the source; they are usually repeats but may differ in a detail not shown here. Equal entries are not always repeated. “Also recorded” adds a separate entry of the source. No end group written: not given here.

Key:
relaxin antibody = assay: Antibody-based ELISA of PEGylated relaxin; assay type: binding; conditions: Quantikine ELISA, six dilutions
[1] = tested on: NIH 373 murine fibroblasts; assay: cAMP levels in fibroblasts exposed to relaxin; assay type: cell-based; conditions: cultured NIH 373 murine fibroblasts exposed to relaxin
Protocol: The activity of recombinant relaxin (RLN2) was validated by measuring upregulation in the production of cAMP, a secondary metabolite of the relaxin signaling pathway. Increases in cAMP lead to increased MMP expression and decreased collagen and TIMP expression. To validate the activity of RLN2, cultured NIH 373 murine fibroblasts were exposed to relaxin, and the resulting cAMP levels were measured.

[2] = in vivo; cited from earlier work
[3] = tested on: rat shoulder contracture model (glenohumeral joint); assay: ROM measurement in rat shoulder contracture model (Example 2); assay type: in vivo, Sprague Dawley rats; conditions: for Final ROM, Total ROM: 8 weeks follow-up; for Difference ROM (% Δ°), External ROM / Difference ROM (% Δ°), Internal ROM / Difference ROM (% Δ°), Total ROM: final versus baseline
Protocol: On the approval of the Institutional Animal Care and Use Committee (IACUC) at Beth Israel Deaconess Medical Center, 20 Female Sprague Dawley rats (250-300 g, Charles River Laboratories, Inc., Wilmington, Mass., USA) were chosen for this study. Baseline ROM measurements were taken for both forelimbs of each rat prior to any surgical intervention. Torque measurements were recorded at […] (τINT) and 60° of external rotation (τOUT), totaling a full 160° range of motion (ROM) (FIG. 4, Panels B and C). These measurements were required as they indicate a baseline for normal torque necessary to achieve both rotations. The specific rotation angles were chosen under fluoroscopic guidance to ensure minimal scapular recruitment, while simultaneously allowing for maximum humeral rotation within the joint space. Each ROM measurement was repeated three times to ensure consistency. All measurements were also performed under anesthesia to prevent any active muscle activation from interfering with the passive capsular resistance. Induction of the rats was performed at 5% isoflurane inhalation, and maintenance was managed at a 2% isoflurane dose.
After the baseline measurements and under anesthesia, 20 rats were subjected to the immobilization procedure as outlined in Example 1 and in Villa-Camacho et al., Journal of Shoulder and Elbow Surgery, 2015, 24(11):1809-16, to induce fibrosis. In short, an incision was created longitudinally on the left limb, perpendicular to the scapular spine, to expose both the scapula and humerus. A No. 2-0 Ethibond polyester suture (Ethicon, San Lorenzo, PR, USA) was used to immobilize the humerus to the scapula by passing two loops through the medial border of the scapula and against the humeral shaft (FIG. 4, Panel A). Care was taken to ensure that the sutures avoided critical vasculature, musculature, and nerves. Each rat was maintained under fixation for 8 weeks. After the eighth week, the suture fixations were removed, and the rats were randomly placed in four groups: (1) intra-articular relaxin, single dose (IAS) (n=5); (2) intra-articular relaxin, multiple doses (IAM) (n=5); (3) intravenous relaxin, multiple doses (IVM) (n=5); and (4) untreated surgical controls (n=5). The sample size was determined with a power of 0.80 and α=0.05 if a 10% increase in range of motion from contracture was to be expected.
The mechanical testing apparatus was assembled with four core components and controlled with a computer through custom-built software written on MATLAB 7.13.0.564 (The MathWorks, Inc., Natick, Mass., USA). Movement of the forelimb was mediated by a stepper motor controlled by a microcontroller (UNO R3; Arduino, Torino, Italy). The motor was then positioned axially with the reaction torque sensor (TFF400; FUTEK Advanced Sensor Technology, Inc., Irvine, Calif., USA), which measured torque and was utilized as an input feedback for the system. Along the same axis, the arm clamp and the 3-axis inclinometer (3DM-GX3-15; MicroStrain, Inc., Williston, Vt., USA) were attached on the sensing side of the torque sensor. The inclinometer also provided both positional feedback as well as angular measurements for the system. The entire assembly was positioned above the rat with the sensing plane parallel to the ground to ensure that gravity had little impact on the torque measurements (FIG. 4). The apparatus was programmed to move to a specified torque or angle for internal and external rotation for each rat. Plastic zip ties were used to secure the rat forelimb in the apparatus. Care was taken to prevent any injury, and the apparatus was programmed with an internal and external limit switch in the case the apparatus operated abnormally.
Immediately after removal of the restraining sutures, relaxin was administered to the noncontrol group rats. […]

[4] = tested on: glenohumeral joint capsule and articular cartilage; assay type: in vivo, Sprague Dawley rats
Excerpt: At the conclusion of the follow-up period, the rats were euthanized according to IACUC guidelines. The rats were weighed and then subjected to CO2 exposure for euthanasia, and further confirmed through a bilateral thoracotomy. The shoulders were bilaterally harvested by disarticulating the humerus from the ulna, and removing the scapula from the clavicle and thoracic cavity. Excess muscle tissue not immediately surrounding the glenohumeral joint capsule was removed. The excised shoulders were decalcified for two months in a solution of ethylenediaminetetraacetic acid (EDTA), which was changed every two to three days. Once decalcified, the shoulders were affixed in a solution of 10% formalin and then mounted in paraffin stacks for histological sectioning at the Beth Israel Deaconess Medical Center (BIDMC) Histology Core. These stacks were mounted so that coronal slicing could be obtained. The slices were stained with hematoxylin and eosin (H&E) and examined for any morphological changes. These slices were taken from a posterior region of humeral head to better find evidence of periarticular adhesions (Brue et al., Knee Surg. Sports Traumatol. Arthrosc., 2007, 15(8):1048-54; White et al., Radiographics, 2016, 36(3):824-39). Further slices, taken mid-coronally, were also stained with fibronectin antibodies paired with peroxidase to further examine fibrotic characteristics such as capsular thickening. Collagen III, α-smooth muscle actin, and other acute fibrotic markers were not chosen for analysis, since histologic sectioning would occur 4 months after contracture creation. The specimen chosen to undergo histological analysis were the surgical control group and the IAM group. The IAM group was chosen because this group received the highest and most frequent dose of relaxin, and was, therefore, the best candidate to showcase any morphologic changes due to relaxin administration. The contralateral shoulders from the surgical control group were used to model a healthy control shoulder for histologic comparisons.

[5] = IAM: intra-articular, multiple doses, final measurement
[6] = IAS: intra-articular, single dose, final measurement
[7] = IVM: intravenous, multiple doses, final measurement

PEGylated relaxin: relaxin reacted with mPEG-SVA (2000 MW); product conjugated with two PEG chains (chain 1 QLYSALANKCCHVGCTKRSLARFC; chain 2 DSWMEEVIKLCGRELVRAQIAICGMSTWS; not fully specified (bridges); ends and bridges not checked)
Recognition by the relaxin antibody (relaxin antibody): recognized by the relaxin antibody

relaxin
cAMP levels [1]: dose-dependent upregulation of cAMP levels | Half-life [2]: about 2.5 hours | Treatment of shoulder contracture, overall result ([3]; 5 intra-articular doses of 0.0005 mg over 10 days (total 0.0025 mg)): effective in treating shoulder contracture; also recorded: full recovery with increased ROM for 60 days | ROM of healthy contralateral forelimbs / systemic joint laxity ([3]; IAM, IAS and IVM groups): no significant change from baseline; also recorded: no systemic joint laxity was present | Final ROM, Total ROM ([3]; IAM: intra-articular, multiple doses (5 x 0.0005 mg every 2 days), final measurement): 159.13 ± 6.97 ° | Final ROM, External ROM [3, 5]: 60.27 ± 11.05 ° | Final ROM, Internal ROM [3, 5]: 98.87 ± 10.63 ° | Total ROM compared with surgical control group (statistics) ([3]; IAM, final measurement, P<0.01): significantly improved when compared with the control group | Total ROM compared with baseline measurements (statistics) ([3]; IAM, final measurement, P=0.94): not statistically different from the baseline measurements | Difference ROM (% Δ°), External ROM ([3]; IAM): 1.01% | Difference ROM (% Δ°), Internal ROM ([3]; IAM): −0.27% | Difference ROM (% Δ°), Total ROM ([3]; IAM): 0.21% | Final ROM, Total ROM ([3]; IAS: intra-articular, single dose 0.0005 mg, final measurement): 138.40 ± 15.34 ° | Final ROM, External ROM [3, 6]: 63.13 ± 14.20 ° | Final ROM, Internal ROM [3, 6]: 75.27 ± 15.62 ° | Increase in total ROM compared with surgical control (statistics) ([3]; IAS, final measurement): not found to be significant | Restriction of total ROM compared with baseline ([3]; IAS, final measurement): −21.72 ° | Difference ROM (% Δ°), External ROM ([3]; IAS): 5.22% | Difference ROM (% Δ°), Internal ROM ([3]; IAS): −24.83% | Difference ROM (% Δ°), Total ROM ([3]; IAS): −13.57% | Improvement in ROM over the surgical control group ([3]; IAS, measurement immediately following day 0, P=0.025): 11.87 ° | Final ROM, Total ROM ([3]; IVM: intravenous, multiple doses (5 x 0.17 mg every 2 days), final measurement): 127.93 ± 16.35 ° | Final ROM, External ROM [3, 7]: 54.67 ± 15.30 ° | Final ROM, Internal ROM [3, 7]: 73.27 ± 10.35 ° | Restriction of total ROM compared with baseline ([3]; IVM, final measurement): −30.73 ° | Difference ROM (% Δ°), External ROM ([3]; IVM): −7.87% | Difference ROM (% Δ°), Internal ROM ([3]; IVM): −26.24% | Difference ROM (% Δ°), Total ROM ([3]; IVM): −19.42% and −19.37% | Treatment of shoulder contracture, overall result ([3]; single intra-articular injection of 0.0005 mg): ineffective | Capsular adhesions, H&E stained sections ([4]; IAM group, end of follow-up): lacked any apparent adhesions | Capsular tissue thickness, fibronectin stain ([4]; IAM group, end of follow-up): return to normal thickness in capsular tissue | Peroxidase intensity (fibronectin stain) in and around capsular tissue ([4]; IAM group, end of follow-up): reduction in peroxidase intensity | Articular cartilage quality, OARSI grading system ([4]; rat, in vivo): between a grade 1 and grade 2 level of osteoarthritis | Fibrillation of the articular surface, H&E ([4]; rat, in vivo): both superficial and deep fibrillation within the articular surface
